# “Also recorded” adds a separate entry of the source.
# Columns and labels:
# [1] = system: human foreskin and dermal fibroblasts; assay: Reprogramming of human fibroblasts: colonies with human ES like morphology; type: cell-based
# Experimental: (§1) Mouse fibroblasts were isolated from Oct4-GFP, Rosa26-LacZ and Hdac2^flax/flax embryos at E13.5 and cultured in fibroblast medium as described (Takahashi et al., 2007). Hdac2 was excised by infection of Hdac2^flax/flax MEFs with adeno-cre virus. Human dermal fibroblast were cultured in DMEM/F12, 15% FBS, penicillin/streptomycin and L-glutamine. Viral particles were generated by transfection of plated 293T cells with pLOVE vectors encoding miR302/367, Oct4, Sox2, Klf4, or N-myc along with pMD.G and psPAX2 vectors as described (Blelloch et al., 2007). Supernatant from the transfected cells were collected every 24 hr for 48 hrs and titered. The titered viral suspension was mixed with 0.5 μl (0.1 of 10 μg/mL polybrene (American Bioanalytical, MA) per milliliter of viral suspension and used to infect fibroblasts. After viral infection, mouse fibroblast were cultured in mouse ES medium supplemented with or without valproic acid at a final concentration of 2 mM for the indicated length of time. Infected human fibroblast were culture in human ES medium as described (Huangfu et al., 2008a; Takahashi et al., 2007).
# Hdac1 = assay: Western blot for Hdac1 in MEFs; type: cell-based, mouse; conditions: MEFs during miR302/367 reprogramming
# Experimental: (§2) Total cell lysates were prepared for Western blotting as previously described (Trivedi et al., 2008). Equal amounts of protein were resolved by SDS-PAGE and transferred to polyvinylidenedifluoride membranes. Membranes were incubated with Hdac1 antibody (1:1000 dilution, Cell Signaling), Hdac2 antibody (1:1000 dilution, Invitrogen) or Hdac3 antibody (1:1000 dilution, Sigma). Primary antibody binding was visualized by HRP-conjugated secondary antibody and detected by enhanced chemiluminescence (LumiGlo, Cell Signaling). For loading control, membranes were reprobed with primary antibody against GAPDH (1:2500 dilution, Abeam).
# Hdac2 = assay: Western blot for Hdac2 in MEFs; type: cell-based, mouse; conditions: MEFs during miR302/367 reprogramming
# Experimental: as §2
# Hdac3 = assay: Western blot for Hdac3 in MEFs; type: cell-based, mouse; conditions: MEFs during miR302/367 reprogramming
# Experimental: as §2
# MEFs = assay: CellTiter proliferation assay for MEFs; type: cell-based, mouse; conditions: wild-type and Hdac2-/- MEFs
# Experimental: Proliferation assays for MEFs were performed using the CellTiter 96 Aqueous One Solution Cell Proliferation kit (Promega, Inc.). 20 μl of CellTiter Reagent, which functions by being incorporated by viable cells into a colorimetric product that can be measured at 490 nm, was added to 100 μL of culture medium, incubated at 37° C. […] absorbance was measured at 490 nm at 1.5 hours, 2.5 hours, and 4.5 hours.
# Hdac2-/- MEFs = assay: miR302/367 reprogramming of Hdac2-/- MEFs; type: cell-based, mouse; conditions: Hdac2-/- MEFs transduced with miR302/367
# Experimental: as §1
# The Hdac2p^flox/flox allele was generated by flanking exon 2 with loxP recombination sites using the targeting vector depicted in FIG. 19A. […]
# Oct4-GFP MEFs = assay: iPS reprogramming of Oct4-GFP MEFs: clones with ES like morphology and Oct4-GFP positive clones; type: cell-based, mouse; conditions: day 10 of reprogramming; culture up to three weeks
# Experimental: as §1
Compound,requirement for and effect of VPA on reprogramming human fibroblasts by miR302/367 [1],Hdac1 protein expression level (Hdac1),Hdac2 protein level (Hdac2),Hdac3 protein expression level (Hdac3),proliferation rates in MEFs (MEFs),effect of VPA addition on number of iPS cell clones (Hdac2-/- MEFs),iPS cell colony generation in MEFs (Oct4-GFP MEFs)
"CCCC(CCC)C(=O)O [VPA, valproic acid]",not required; also recorded: did not affect the efficiency of reprogramming,unchanged,caused degradation of Hdac2 protein,unchanged,did not affect proliferation rates,did not change the number of iPS cell clones,
miR367: miR367 expressed alone; sequence AAUUGCACUUUAGCAAUGGUGA (SEQ ID NO: 8) (listed as Homo sapiens),,,,,,,did not reprogram fibroblasts

# Reference: patent publication US9115345B2, “MicroRNA induction of pluripotential stem cells and uses thereof” (The Trustees Of The University Of Pennsylvania, priority 2010, dated 2015)
